Assay results as given in PubChem BioAssay (NCI).
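Tested at 5 concentrations; 48 h exposure; 96-well plates; endpoints linearly interpolated, else capped at highest concentration. GI50 is the concentration that inhibits growth by half. At the TGI there is no net growth.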

Legend:
Experiment in all cases: growth of human tumour cells (NCI), 48 h
MCF7 breast = system: MCF7 breast
MDA-MB-468 breast = system: MDA-MB-468 breast
UACC-62 melanoma = system: UACC-62 melanoma
SK-MEL-5 melanoma = system: SK-MEL-5 melanoma
NCI/ADR-RES ovarian = system: NCI/ADR-RES ovarian
KM12 colon = system: KM12 colon
NCI-H23 lung = system: NCI-H23 lung
NCI-H460 lung = system: NCI-H460 lung
SNB-19 CNS = system: SNB-19 CNS
HCT-15 colon = system: HCT-15 colon
HCT-116 colon = system: HCT-116 colon
SF-268 CNS = system: SF-268 CNS
NCI-H226 lung = system: NCI-H226 lung
PC-3 prostate = system: PC-3 prostate
OVCAR-5 ovarian = system: OVCAR-5 ovarian
SK-MEL-28 melanoma = system: SK-MEL-28 melanoma
LOX IMVI melanoma = system: LOX IMVI melanoma
CCRF-CEM leukemia = system: CCRF-CEM leukemia
SF-539 CNS = system: SF-539 CNS
786-0 renal = system: 786-0 renal
HS 578T breast = system: HS 578T breast
SNB-75 CNS = system: SNB-75 CNS
SK-MEL-2 melanoma = system: SK-MEL-2 melanoma
A498 renal = system: A498 renal
TK-10 renal = system: TK-10 renal
K-562 leukemia = system: K-562 leukemia
UACC-257 melanoma = system: UACC-257 melanoma
HOP-62 NSCLC = system: HOP-62 NSCLC

CO[C@H]1CSS[C@@H]1Cn1nc(-c2ccc(Oc3ccccc3)cc2)c2c(N)ncnc21
GI50 (MCF7 breast): 3.84 µM | TGI (MCF7 breast): 20.6 µM | GI50 (MDA-MB-468 breast): 3.06 µM | TGI (MDA-MB-468 breast): 12.9 µM | GI50 (UACC-62 melanoma): 2820 nM | TGI (UACC-62 melanoma): 12.7 µM | GI50 (SK-MEL-5 melanoma): 3.21 µM | TGI (SK-MEL-5 melanoma): 12.2 µM | GI50 (NCI/ADR-RES ovarian): 12.8 µM | TGI (NCI/ADR-RES ovarian): 64.6 µM | GI50 (KM12 colon): 5.51 µM | TGI (KM12 colon): 28 µM | GI50 (NCI-H23 lung): 8.51 µM | TGI (NCI-H23 lung): 42.1 µM | GI50 (NCI-H460 lung): 2690 nM | TGI (NCI-H460 lung): 7.89 µM | GI50 (SNB-19 CNS): 5.96 µM | TGI (SNB-19 CNS): > 100 µM | GI50 (HCT-15 colon): 6.09 µM | TGI (HCT-15 colon): 32.6 µM | GI50 (HCT-116 colon): 4.19 µM | TGI (HCT-116 colon): 15.9 µM | GI50 (SF-268 CNS): 4.22 µM | TGI (SF-268 CNS): > 100 µM | GI50 (NCI-H226 lung): 9.1 µM | TGI (NCI-H226 lung): 50.3 µM | GI50 (PC-3 prostate): 18 µM | TGI (PC-3 prostate): 75.1 µM | GI50 (OVCAR-5 ovarian): 11.4 µM | TGI (OVCAR-5 ovarian): 41.3 µM | GI50 (SK-MEL-28 melanoma): 2750 nM | TGI (SK-MEL-28 melanoma): 8.16 µM | GI50 (LOX IMVI melanoma): 8.01 µM | TGI (LOX IMVI melanoma): 20.7 µM | GI50 (CCRF-CEM leukemia): 4.49 µM | TGI (CCRF-CEM leukemia): 22.3 µM | GI50 (SF-539 CNS): 14.4 µM | TGI (SF-539 CNS): 49.2 µM | GI50 (786-0 renal): 17.4 µM | TGI (786-0 renal): 58 µM | GI50 (HS 578T breast): 14.2 µM | TGI (HS 578T breast): 68.3 µM | GI50 (SNB-75 CNS): 18.8 µM | TGI (SNB-75 CNS): 75.3 µM | GI50 (SK-MEL-2 melanoma): 3.99 µM | TGI (SK-MEL-2 melanoma): 15 µM | GI50 (A498 renal): 17.7 µM | TGI (A498 renal): 63.9 µM | GI50 (TK-10 renal): 8.05 µM | TGI (TK-10 renal): 25.7 µM | GI50 (K-562 leukemia): 2830 nM | TGI (K-562 leukemia): 14.4 µM | GI50 (UACC-257 melanoma): 2980 nM | TGI (UACC-257 melanoma): 12 µM | GI50 (HOP-62 NSCLC): 3.25 µM | TGI (HOP-62 NSCLC): 26.9 µM
